Tests used:
[1] = patients with Crohn's disease; cited from earlier work
[2] = tested on: LPS-induced acute lung injury in mice; assay: Mouse LPS acute lung injury model with UM101 analogues, total protein in lung lavage fluid (FIG. 9, FIG. 10); assay type: in vivo
Description: FIG. 9 illustrates that UM101 and analogues inhibit acute lung injury in a mouse model. Mice were pretreated i.p. with 1 mg of test compounds and then treated with […] LPS i.t. at 39° C. to induce inflammation. Lung injury was assessed by measuring total protein in the lung lavage fluid.
FIG. 10 illustrates that UM101 and analogues inhibit acute lung injury in a mouse model. All mice received 50 μg LPS i.t. and were kept 24 h at 39° C.; all treatments 1 mg in 0.5 ml DMSO given 6 h post-LPS; mean SM, n=5, *p=0.03 vs DMSO #1; †p=0.16 vs DMSO #2. Lung injury was assessed by measuring total protein in the lung lavage fluid.
First, the compounds can block thrombin-induced cell permeability in human vascular endothelial cells (FIG. 8). […] Mice were pretreated i.p. with 1 mg of test compounds and then treated with […] LPS i.t. at 39° C. to induce inflammation. Lung injury was assessed by measuring total protein in the lung lavage fluid. […] All mice received 50 μg LPS i.t. and were kept 24 h at 39° C.; all treatments 1 mg in 0.5 ml DMSO given 6 h post-LPS; mean±SM, n=5, *p=0.03 vs DMSO #1; †p=0.16 vs DMSO #2. Lung injury was assessed by measuring total protein in the lung lavage fluid.

[3] = tested on: Stat-1 phosphorylation in anisomycin-stimulated HeLa cells; assay: Inhibition of substrate phosphorylation, phospho-Stat-1 immunoblot; assay type: cell-based, human; conditions: 10 μM, 30 min pretreatment
Description: (§1) Inhibition of substrate phosphorylation: A functional analysis of UM101 to block p38-dependent phosphorylation of MK2 and Stat-1 was performed in HeLa cells. […] Cell extracts prepared in RIPA buffer containing protease and phosphatase inhibitors were resolved by SDS-PAGE, transferred to PVDF membrane, blocked with 5% nonfat dry milk, probed with primary antibodies against phosphorylated MK2 and Stat-1, and total p38α as a loading control. Bands were detected using secondary antibodies conjugated to infrared fluorophores and infrared fluorescence imaging (Odyssey; LICOR).

[4] = tested on: LPS/hyperthermia-induced ALI in mice; conditions: for mice died within 24 h: 1000 μg i.p. 30 min prior to 50 μg LPS i.t./hyperthermia
HMVECL monolayers = assay: Endothelial permeability assay (10 kDa dextran flux), TNFα/hyperthermia; assay type: cell-based, human
Description: Endothelial permeability assay: Permeability of HMVECL monolayers was assessed by measuring transendothelial flux of 10 kDa dextran conjugated to Cascade blue fluorescent dye for 30 min at 37° C. in Matrigel-coated 3 μm pore size Transwell plates.
The capacity of UM60 and UM101 to stabilize endothelial barriers to macromolecules and neutrophils in TNFα- and hyperthermia-stressed HMVECL monolayers was tested (FIG. 2).

[5] = tested on: MK2 phosphorylation in anisomycin-stimulated HeLa cells; assay: Inhibition of substrate phosphorylation, phospho-MK2 immunoblot; assay type: cell-based, human; conditions: 10 μM, 30 min pretreatment
Description: as §1

p38β = molecular target: T1, p38β (Homo sapiens, UniProt Q15759); assay: DSF, binding to p38β
T1 construct: HA (N); made in house; host or cells: E. coli BL21
T1 sequence (Q15759 whole entry): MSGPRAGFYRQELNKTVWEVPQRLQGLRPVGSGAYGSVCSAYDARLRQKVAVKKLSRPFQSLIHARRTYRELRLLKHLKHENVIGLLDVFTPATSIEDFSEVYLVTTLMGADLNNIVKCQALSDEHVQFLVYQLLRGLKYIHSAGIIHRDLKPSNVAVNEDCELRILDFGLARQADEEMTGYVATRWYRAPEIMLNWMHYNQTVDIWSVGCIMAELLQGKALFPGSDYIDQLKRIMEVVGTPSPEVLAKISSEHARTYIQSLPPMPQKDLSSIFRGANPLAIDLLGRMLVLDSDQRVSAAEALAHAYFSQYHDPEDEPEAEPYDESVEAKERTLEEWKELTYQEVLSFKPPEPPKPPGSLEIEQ

HMVECLs [6] = assay: IL-8-directed neutrophil transendothelial migration (TEM) assay; assay type: cell-based, human
Description: Neutrophil transendothelial migration (TEM) assay: Neutrophils were isolated from heparinized venous blood that was collected from healthy volunteers using a protocol approved by the University of Maryland Institutional Review Board and TEM of calcein-labeled neutrophils through HMVECLs was measured.

[7] = patients with hypercholesterolemia; cited from earlier work
[8] = rheumatoid arthritis, two trials; cited from earlier work
[9] = patients at-risk for ARDS; cited from earlier work
p38α = p38α (Homo sapiens, UniProt Q16539); assay: Differential scanning fluorimetry (DSF), binding to p38α
Sequence of p38α (Q16539 whole entry): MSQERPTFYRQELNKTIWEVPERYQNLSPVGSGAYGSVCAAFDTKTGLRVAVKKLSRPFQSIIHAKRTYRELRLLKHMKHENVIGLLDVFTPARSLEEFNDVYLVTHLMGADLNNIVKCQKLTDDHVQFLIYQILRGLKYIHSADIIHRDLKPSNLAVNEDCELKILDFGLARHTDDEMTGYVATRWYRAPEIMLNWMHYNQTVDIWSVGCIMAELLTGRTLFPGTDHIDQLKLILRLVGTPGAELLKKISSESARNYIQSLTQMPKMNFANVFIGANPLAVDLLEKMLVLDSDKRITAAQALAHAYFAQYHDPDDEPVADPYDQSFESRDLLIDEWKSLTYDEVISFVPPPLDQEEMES

HMVECLs [10] = assay: LDH release cytotoxicity assay; assay type: cell-based, human; conditions: 100 μM for 48 h
Description: (§2) Cytotoxicity of HMVECL exposed to 10-100 μM of each compound is analyzed by MTS assay (Promega), LDH release (Promega), and immunoblotting for activated caspase-3 (Cell Signaling).

HMVECLs [11] = assay: MTS cytotoxicity assay; assay type: cell-based, human; conditions: 100 μM for 48 h
Description: as §2
Cytotoxicity assay: Cytotoxicity was monitored in parallel HMVEC-L monolayers established in 96-well culture plates using a colorimetric assay that measured reduction of 3-(4,5-dimethylthiazol-2-yl)-5-(3-carboxymethoxyphenyl)-2-(4-sulfophenyl)-2H-tetrazolium (MTS) to a formazan dye (CellTiter 96™; Promega; Madison, Wis.) according to the manufacturer's protocol and quantifying product formation by measuring absorption at 490 nm.

ERK2 = ERK2 (Homo sapiens, UniProt P28482); assay: DSF, binding to ERK2; conditions: 10-100 μM
Sequence of ERK2 (P28482 whole entry, species assumed): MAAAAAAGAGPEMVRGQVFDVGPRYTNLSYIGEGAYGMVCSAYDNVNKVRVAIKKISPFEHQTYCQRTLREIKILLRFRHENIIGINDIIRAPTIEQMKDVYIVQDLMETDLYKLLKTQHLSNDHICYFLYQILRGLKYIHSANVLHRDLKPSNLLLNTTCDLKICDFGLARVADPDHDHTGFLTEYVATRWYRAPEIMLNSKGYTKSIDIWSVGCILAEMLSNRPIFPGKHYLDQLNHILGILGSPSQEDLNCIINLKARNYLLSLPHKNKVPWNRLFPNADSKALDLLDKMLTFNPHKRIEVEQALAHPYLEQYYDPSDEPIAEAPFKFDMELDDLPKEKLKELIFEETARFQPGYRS
Description: Differential Scanning Fluorimetry (DSF): Binding of CADD selected compounds to p38α and […] was tested experimentally using DSF, which evaluates changes in the target protein melting temperature (ΔTm) due to interactions with test compound. SYPRO orange (Invitrogen; diluted 1:1000 in 10 mM HEPES, 150 mM NaCl, pH 7.5) and 1 μM unphosphorylated recombinant human p38α were added to 96-well PCR plates, then 50 nM to 200 μM test compound in 100% DMSO (2% final DMSO concentration) was added, the plates mixed, sealed, centrifuged at 1000 rpm for 1 min, and melting curve performed using an Applied Biosystems real time PCR instrument. The melting point was determined from the first derivative curve. In addition, […], or target-disrupted p38α mutant are used as well.
Test compounds at 10-100 μM were screened for binding to recombinant p38α and ERK2 using DSF (FIG. 1e, Table 1).

[12] = FIG. 10: 50 μg LPS i.t., 24 h at 39° C., 1 mg in 0.5 ml DMSO given 6 h post-LPS

Cc1ccc(-n2nc(C(C)(C)C)cc2NC(=O)Nc2ccc(OCCN3CCOCC3)c3ccccc23)cc1 [BIRB 796, doramapimod]
clinical effect [1]: no clinical effect | serum CRP levels [1]: transiently reduced

O=C(Nc1ccc(CN2CCOCC2)cc1)c1ccc(Cl)cc1 [SF-7-009]
protein leak into bronchoalveolar lavage fluid (total protein) ([2]; FIG. 9: pretreated i.p. with 1 mg, then 100 mg LPS i.t. at 39° C.): reduced protein leak | protein leak into bronchoalveolar lavage fluid (total protein) [2, 12]: reduced protein leak

C[S+]([O-])c1ccc(-c2nc(-c3ccncc3)c(-c3ccc(F)cc3)[nH]2)cc1 (centres unmarked) [SB203580, reference compound]
anisomycin-stimulated phosphorylation of Stat-1 [3]: reduced | reduction of lavage neutrophil content vs. DMSO-treated controls ([4]; 1000 μg i.p.): 46.8% | mice died within 24 h [4]: one of six | reduction of TNFα/hyperthermia-induced permeability increase (HMVECL monolayers; 10 μM): 50% | anisomycin-stimulated phosphorylation of MK2 [5]: reduced | stabilization of p38β (DSF) (p38β): stabilized both p38α and p380 | reduction of hyperthermia-augmented neutrophil TEM (HMVECLs [6]; 10 μM): 84%

Cc1c(F)cc(C(=O)NC2CC2)cc1-c1ccc(C(=O)NCC(C)(C)C)cn1 [losmapimod]
serum CRP [7]: reduced serum CRP | vascular relaxation [7]: improved vascular relaxation

NC(=O)c1ccc(N(C(N)=O)c2c(F)cccc2F)nc1-c1ccc(F)cc1F [VX-702]
ACR20 symptom score [8]: small increases in proportion of treated subjects with ACR20 symptom score vs. placebo

Cc1cc(F)ccc1-c1nc(NC(CO)CO)nc2c1ccc(=O)n2-c1c(F)cccc1F [dilmapimod]
safety [9]: safe at the doses administered | serum C-reactive protein (CRP) levels [9]: modestly reduced

CN(C)c1cccc2c(S(=O)(=O)Nc3ccc(CN4CCOCC4)cc3)cccc12 [SF-7-044]
protein leak into bronchoalveolar lavage fluid (total protein) [2, 12]: reduced protein leak

O=C1c2cc(S(=O)(=O)NCCO)ccc2-c2ccc(S(=O)(=O)NCCO)cc21 [UM60, N2,N7-di(2-hydroxyethyl)-9-oxo-9H-2,7-fluorenedisulfonamide]
stabilization of p38α (DSF) (p38α; 10-100 μM): stabilized p38α | ΔTm at 100 µM (p38α; read-out: increase of the melting temperature of p38α): ~0.7 °C | toxicity in LDH release assay (HMVECLs [10]): Neither compound was toxic | mice died within 24 h [4]: Four of six | reduction of TNFα/hyperthermia-induced permeability increase (HMVECL monolayers; 10 μM): no effect | reduction of TNFα/hyperthermia-induced permeability increase (HMVECL monolayers; 25 μM): no effect | reduction of TNFα/hyperthermia-induced permeability increase (HMVECL monolayers; 100 μM): 71% | toxicity in MTS assay (HMVECLs [11]): Neither compound was toxic | stabilization of ERK2 (DSF) (ERK2): not ERK2 | reduction of hyperthermia-augmented neutrophil TEM (HMVECLs [6]; 10 μM): 18% | reduction of hyperthermia-augmented neutrophil TEM (HMVECLs [6]; 25 μM): 89% | reduction of hyperthermia-augmented neutrophil TEM (HMVECLs [6]; 50 μM): less than baseline levels

From patent US11078171B2, “Non-ATP/catalytic site p38 mitogen activated protein kinase inhibitors” (University of Maryland, Baltimore, priority 2018, dated 2021)
